Laboratory results from ChEMBL document CHEMBL1150298, “Sulfadiazine/hydroxypropyl-beta-cyclodextrin host-guest system: Characterization, phase-solubility and molecular modeling” (Bioorg Med Chem, 2008).
≈ marks a conversion by molar mass, not a printed value.

Assay: Aqueous solubility of compound at pH 7 by spectrophotometry
Details: aqueous solution

solubility: 40 µg/mL (≈ 160 µM)
Structure (SMILES): Nc1ccc(S(=O)(=O)Nc2ncccn2)cc1 [SULFADIAZINE]
